Consider 3 compounds from US20260297542A1, “HERBICIDE RESISTANT PLANTS” (SYNGENTA CROP PROTECTION AG, priority 2023, published 2026).

SMILES strings stand for the structures. Positions count from the first letter of the chain named.

Test in all cases: E. coli hemG growth inhibition by herbicide, AtPPO1 variant
Holding throughout (assay type): cell-based
Settings in all cases: read-out: percentage growth inhibition

The target of one assay is T1, AtPPO1 G404A (Arabidopsis thaliana, UniProt P55826, G404A).
T1 construct: expressed in transfected cells; host or cells: E. coli BL21(DE3) hemG (pET24a, T7 promoter)
T1 sequence (P55826 35-537 G404A): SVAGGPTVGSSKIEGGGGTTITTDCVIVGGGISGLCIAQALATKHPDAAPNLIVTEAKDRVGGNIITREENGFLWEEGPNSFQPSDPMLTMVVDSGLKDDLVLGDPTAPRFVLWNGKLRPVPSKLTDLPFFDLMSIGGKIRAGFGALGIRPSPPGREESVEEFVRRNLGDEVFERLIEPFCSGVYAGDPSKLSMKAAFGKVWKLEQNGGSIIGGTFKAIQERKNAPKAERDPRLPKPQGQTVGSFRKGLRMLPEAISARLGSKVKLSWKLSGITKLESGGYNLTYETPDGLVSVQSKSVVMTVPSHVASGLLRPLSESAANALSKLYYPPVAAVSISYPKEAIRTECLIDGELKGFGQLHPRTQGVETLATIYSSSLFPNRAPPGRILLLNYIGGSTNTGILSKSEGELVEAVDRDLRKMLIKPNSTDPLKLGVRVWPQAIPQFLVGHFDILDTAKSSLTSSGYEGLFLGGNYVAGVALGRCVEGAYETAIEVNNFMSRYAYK
In short, it runs like this:
(§1)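 Read-out is OD600 at 24 h post inoculation, converted to percent growth inhibition relative to DMSO. The hemG-deleted BL21(DE3) host relied on the plasmid-borne AtPPO1 variant, induced with 0.1 mM IPTG, with 6.25 ppm herbicide 0 or E or 0.78 ppm herbicide B present at 37° C.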

A further assay has as its target T2, AtPPO1 R284G (Arabidopsis thaliana, UniProt P55826, R284G).
T2 construct: expressed in transfected cells; host or cells: E. coli BL21(DE3) hemG (pET24a, T7 promoter)
T2 sequence (P55826 35-537 R284G): T1 sequence (P55826 35-537 G404A) with R250G, A370G
In short, it runs like this:
as §1

The target of a further assay is T3, AtPPO1 V447C (Arabidopsis thaliana, UniProt P55826, V447C).
T3 construct: expressed in transfected cells; host or cells: E. coli BL21(DE3) hemG (pET24a, T7 promoter)
T3 sequence (P55826 35-537 V447C): T1 sequence (P55826 35-537 G404A) with A370G, V413C
In short, it runs like this:
as §1

For a further assay, the target named is T4, AtPPO1 Y361D (Arabidopsis thaliana, UniProt P55826, Y361D).
T4 construct: expressed in transfected cells; host or cells: E. coli BL21(DE3) hemG (pET24a, T7 promoter)
T4 sequence (P55826 35-537 Y361D): T1 sequence (P55826 35-537 G404A) with Y327D, A370G
In short, it runs like this:
as §1

For the compound `C#CCN1C(=O)C(F)(F)Oc2cc(F)c(-n3c(=O)n(C)c(=S)n(C)c3=O)cc21` [Herbicide B, trifludimoxazin], the inhibition at 0.78 ppm on AtPPO1 G404A was 12%; at AtPPO1 R284G it was 35%; at AtPPO1 V447C, 34%; on AtPPO1 Y361D, 20%.
On to `CCOC(=O)[C@]1(C)CC(c2cc(-n3c(=O)n(C)c(=S)n(C)c3=O)c(F)cc2Cl)=NO1` [Herbicide D, ethyl (5S)-3-[2-chloro-5-(3,5-dimethyl-2,6-dioxo-4-thioxo-1,3,5-triazinan-1-yl)-4-fluoro-phenyl]-5-methyl-4H-isoxazole-5-carboxylate], for which the inhibition at 6.25 ppm was 4% on AtPPO1 G404A, 37% on AtPPO1 R284G, 32% at AtPPO1 V447C and 33% at AtPPO1 Y361D.
On the same counts, the results for `CC(C)N(C)S(=O)(=O)NC(=O)c1cc(-n2c(=O)cc(C(F)(F)F)n(C)c2=O)c(F)cc1Cl` [Herbicide E, saflufenacil] are 2%, 60%, 53% and 14%.

The inhibition is the drop in the measured response relative to a control, in per cent.
